In article PMC5786306, “An AKAP-Lbc-RhoA interaction inhibitor promotes the translocation of aquaporin-2 to the plasma membrane of renal collecting duct principal cells” (PLoS ONE, 2018):
Like-named read-outs stand apart in the source and are kept apart here.

Tests used:
[1] = target: T1, interaction of AKAP-Lbc/DHPH and RhoA (Homo sapiens, UniProt P61586); assay: Homogeneous time-resolved fluorescence (HTRF) assay; assay type: binding; settings: for inhibitory effect on the AKAP-Lbc/DHPH-RhoA interaction: result in words
T1 construct: His6-AKAP-Lbc/DHPH (aa 1972–2342 of human AKAP-Lbc; NP_006729.4); made in house
T1 sequence (P61586 whole entry, the tested form may be a part): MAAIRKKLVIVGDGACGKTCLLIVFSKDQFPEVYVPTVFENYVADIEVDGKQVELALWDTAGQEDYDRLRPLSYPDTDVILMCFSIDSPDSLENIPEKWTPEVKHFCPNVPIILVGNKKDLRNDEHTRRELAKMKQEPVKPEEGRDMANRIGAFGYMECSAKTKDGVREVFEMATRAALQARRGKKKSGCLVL
Description: Fig 2 The small molecule Scaff10-8 inhibits the interaction of the DH domain of AKAP-Lbc and RhoA. (A). Principle of homogenous time-resolved fluorescence (HTRF) assay. Recombinant His-AKAP-Lbc/DHPH and GST-RhoA were generated. The tags are recognized by specific antibodies coupled to fluorescent dyes. When the two proteins interact, donor and acceptor dyes of the antibodies are in close proximity, energy transfer occurs upon excitation at 320 nm and a FRET signal is detected (665 nm). If a compound disrupts the interaction of the DHPH domain and RhoA, the proximity of the fluorescent moieties remains insufficient for a FRET signal to occur. […] As expected, excess untagged Rho decreases the binding between GST-RhoA and His-AKAP-Lbc/DHPH in a dose-dependent manner (lower left panel). […] (C) The influence of Scaff10-8 on the interaction of RhoA with the recombinant DH domain of AKAP-Lbc in the absence of the PH domain was determined by Alpha screen. […] The IC50 value is indicated.
The assay was essentially carried out as described. Scaff10 derivatives were added to His6-AKAP-Lbc/DHPH protein (250 nM final concentration) in HTRF buffer (PBS; 4 mM MgCl2; 0.05% Tween 20) in 384 well plates (Proxiplate-384 Plus, white, #6008289; Perkin Elmer LAS, Rodgau, Germany). Concentrations of Scaff10 derivatives ranged between 1.56–200 μM (2% DMSO final concentration); HTRF buffer with 2% DMSO served as a control. GST-RhoA (30 nM final concentration) in HTRF buffer and anti-GST antibody coupled to terbium (donor) and anti-His6-tag antibody coupled to XL665 (acceptor) were added to all wells (final antibody concentration: 2 μg/ml). After 1 h incubation at room temperature in the dark, FRET signals were recorded at 620 and 665 nm using a Genios Pro plate reader (Tecan Austria GmbH, Grödig, AT) and the ratios of […] to 620 nm were calculated. Wells containing no compound were set to 100% interaction of AKAP-Lbc/DHPH with RhoA, wells containing GST-RhoA only (without His6-AKAP-Lbc/DHPH) were set to 0% interaction. To exclude any interference of the tags and/or antibodies with Scaff10 derivatives, a His6-GST fusion protein replaced the two tagged proteins in a control assay. Wells containing His6-GST fusion protein were set to 100% interaction of His6-GST, wells containing no fusion protein were set to 0% interaction.

[2] = Nephelometric solubility; assay type: physicochemical; settings: maximal solubility in DMEM + 10 % FCS
Procedure: Solubility of Scaff10 derivatives was assessed nephelometrically. Scaff10 derivatives are moderately to poorly soluble in aqueous solutions due to their large number of aromatic rings having lipophilic character. Details about NMR, LC/MS and HPLC characterization steps are given in the Supplemental Information.
Suppl. Tab. 3: Overview of all 55 Scaff10 derivatives.Structures labeld with 1 were commercially obtained. MW = molecular weight. logP = calculated partition coefficient (using […]
Solubility was assessed nephelometrically in DMEM + 10 % FCS + Scaff10 derivative with either 0.3 or 2 % DMSO
final concentration; values in µM indicate maximal solubility of the compound under the respective condition. Yield in % indicates total yield of the last step of chemical synthesis
for each of Scaff10 derivatives. n.d. = not determined. n.i. = not indicated.
Scaff10 MW Number of exp. 2 % DMSO 0.3 % DMSO Scaff10 Yield
Structure log P Disruption of the PPI IC50 [µM]
derivative [g/mol] in dupl. [µM] [µM] class [%]

[3] = Table 1, HTRF, '-' = no IC50, inactive (n.d. is used separately in S3 Table), read-out: IC50 ± SEM
[4] = 0.3 % DMSO final, read-out: Solubility 0.3 % DMSO
[5] = 2 % DMSO final, read-out: Solubility 2 % DMSO
[6] = IC50 ± SEM, Table 1, HTRF, '-' = no IC50, inactive (n.d. is used separately in S3 Table)
[7] = DMEM + 10 % FCS, plasma or biological fluid, kinetic from dmso stock, 0.3 % DMSO final, read-out: Solubility 0.3 % DMSO
[8] = DMEM + 10 % FCS, plasma or biological fluid, kinetic from dmso stock, 2 % DMSO final, read-out: Solubility 2 % DMSO
[9] = IC50 for inhibition of the AKAP-Lbc/DHPH-RhoA interaction, HTRF, text and figures, ± SEM, n = 3–15 in duplicate
[10] = Suppl. Tab. 3, ± SEM, '-' = no IC50, inactive, n.d. = not determined, read-out: HTRF assay IC50

| SMILES | IC50 [1, 3] [µM] | solubility [2, 5] [µM] | solubility [2, 7] [µM] | solubility [2, 8] [µM] | IC50 [1, 10] [µM] | also measured |
| --- | --- | --- | --- | --- | --- | --- |
| Cc1c(CCC(=O)O)c(=O)oc2cc(OCC(=O)c3ccc(N(C)C)cc3)ccc12 [Scaff10-35] | > 200 | > 100 |  |  |  | inhibitory effect on the AKAP-Lbc/DHPH-RhoA interaction ([1]; HTRF): complete loss of activity; solubility [2, 4]: > 150 µM |
| COc1ccc2cc(-c3coc4cc5oc(=O)c(CCC(=O)O)c(C)c5cc34)ccc2c1 [Scaff10-44] |  |  | 40 | 15 |  | IC50 [1, 6]: 20.7 ± 2.5 µM |
| COc1ccc(-c2coc3cc4oc(=O)c(CCC(=O)NO)c(C)c4cc23)cc1 [Scaff10-51] | > 200 | 20 |  |  |  | inhibitory effect on the AKAP-Lbc/DHPH-RhoA interaction ([1]; HTRF): almost complete loss of activity; solubility [2, 4]: 40 µM |
| COc1cccc(-c2ccc(C(=O)COc3ccc4c(C)c(CCC(=O)O)c(=O)oc4c3)cc2)c1 [Scaff10-63] |  |  | 75 | 30 |  | IC50 [1, 9]: 24 ± 8 µM; IC50 [1, 6]: 24.4 ± 8.4 µM |
| COc1ccc(C(=O)COc2ccc3c(C)c(C)c(=O)oc3c2)cc1 [AE168, [2-(4-Methoxyphenyl)-2-oxo-ethoxy]-3,4-dimethyl-chromen-2-one] |  | 75 |  |  | > 200 |  |
| Cc1nc(-c2ccc(F)cc2)ccc1-c1coc2cc3oc(=O)c(C)c(C)c3cc12 [Scaff10-5, 3-[6-(4-Fluorophenyl)-2-methyl-3-pyridyl]-5,6-dimethyl-furo[3,2-g]chromen-7-one] |  |  | > 150 | 65 | > 200 |  |
| Cc1c(C)c2cc3c(-c4cccnc4)coc3cc2oc1=O [Scaff10-3, 5,6-Dimethyl-3-(3-pyridyl)furo[3,2-g]chromen-7-one] |  |  | > 150 | 40 | > 200 |  |
| Cc1c(C)c2ccc(OCC(=O)c3cccnc3)cc2oc1=O [Scaff10-2, 3,4-Dimethyl-7-[2-oxo-2-(3-pyridyl)ethoxy]chromen-2-one] |  |  | 75 | 90 | > 200 |  |
| COc1ccc2cc(-c3coc4cc5oc(=O)c(C)c(C)c5cc34)ccc2c1 [Scaff10-47] | > 200 | 15 |  |  |  | inhibitory effect on the AKAP-Lbc/DHPH-RhoA interaction ([1]; HTRF): no inhibitory effect; solubility [2, 4]: > 150 µM |
| Cc1nc(-c2ccc(F)cc2)ccc1C(=O)COc1ccc2c(C)c(C)c(=O)oc2c1 [Scaff10-4, 7-[2-[6-(4-Fluorophenyl)-2-methyl-3-pyridyl]-2-oxo-ethoxy]-3,4-dimethyl-chromen-2-one] |  |  | > 150 | 40 | > 200 |  |
| COc1ccc(C(=O)COc2ccc3c(C)c(CCC(=O)O)c(=O)oc3c2)cc1 [Scaff10-6, 3-[7-[2-(4-Methoxyphenyl)-2-oxo-ethoxy]-4-methyl-2-oxo-chromen-3-yl]propanoic acid] | > 200 |  | > 150 | 100 |  |  |
| COc1cccc(-c2ccc(-c3coc4cc5oc(=O)c(CCC(=O)O)c(C)c5cc34)cc2)c1 [Scaff10-64] |  |  | > 150 | 70 |  | IC50 [1, 6]: 28.9 ± 9.3 µM |
| CCOC(=O)CCc1c(C)c2ccc(OCC(=O)c3ccc(-c4ccc(F)cc4)nc3C)cc2oc1=O [Scaff10-10, Ethyl 3-[7-[2-[6-(4-fluorophenyl)-2-methyl-3-pyridyl]-2-oxo-ethoxy]-4-methyl-2-oxo-chromen-3-yl]propanoate] |  | 30 |  |  | > 200 | solubility [2, 4]: > 150 µM |
| COc1ccc(-c2coc3cc4oc(=O)ccc4cc23)cc1 [Scaff10-1, 3-(4-Methoxyphenyl)furo[3,2-g]chromen-7-one] |  |  | 40 | 45 | > 200 |  |
| Cc1c(CCC(=O)O)c(=O)oc2cc3occ(-c4ccc(C(F)(F)F)cc4)c3cc12 [Scaff10-30] |  |  |  | > 100 |  | inhibitory effect on the AKAP-Lbc/DHPH-RhoA interaction ([1]; HTRF): reduced; IC50 [1, 6]: 47.8 ± 7.8 µM |
| COc1ccc(C(=O)COc2ccc3c(C)c(CCC(=O)NCCNC(=O)CCCCC4SCC5NC(=O)NC54)c(=O)oc3c2)cc1 (stereo not drawn) [Scaff10-9, N-[2-[3-[7-[2-(4-Methoxyphenyl)-2-oxo-ethoxy]-4-methyl-2-oxo-chromen-3-yl]propanoylamino]ethyl]-5-(2-oxo-1,3,3a,4,6,6a-hexahydrothieno[3,4-d]imidazol-4-yl)pentanamide] |  |  |  |  | > 200 |  |
| Cc1c(C)c2cc3c(-c4ccc(-c5ccccc5)cc4)coc3cc2oc1=O [Scaff10-46] | > 200 | 15 |  |  |  | inhibitory effect on the AKAP-Lbc/DHPH-RhoA interaction ([1]; HTRF): no inhibitory effect; solubility [2, 4]: > 150 µM |
| Cc1c(CCC(=O)O)c(=O)oc2cc3occ(-c4ccncc4)c3cc12 [Scaff10-32] | > 200 | > 100 |  |  |  | inhibitory effect on the AKAP-Lbc/DHPH-RhoA interaction ([1]; HTRF): complete loss of activity; solubility [2, 4]: > 150 µM |
| Cc1c(CCC(=O)O)c(=O)oc2cc3occ(-c4ccc(-c5ccccc5)cc4)c3cc12 [Scaff10-41] |  |  |  | 50 |  | IC50 [1, 6]: 29.1 ± 2.6 µM |
| COc1ccc(-c2coc3cc4oc(=O)c(CC(=O)O)c(C)c4cc23)cc1 [Scaff10-49] | 56.4 ± 4.5 |  | > 150 | > 100 |  | IC50 ([1]; HTRF, text and figures, ± SEM, n = 3–15 in duplicate, read-out: IC50 for inhibition of the AKAP-Lbc/DHPH-RhoA interaction): 56 ± 5 µM |
| COc1ccc(-c2coc3cc4oc(=O)c(CCC(=O)NCC(=O)O)c(C)c4cc23)cc1 [Scaff10-61] |  |  | > 150 |  |  | IC50 [1, 6]: 64 ± 6 µM |
| Cc1c(CCC(=O)O)c(=O)oc2cc3occ(-c4ccccc4)c3cc12 [Scaff10-58] | 66.7 ± 7.5 |  | > 150 | > 100 |  |  |
| COc1ccc(-c2coc3cc4oc(=O)c(CCC(=O)N(C)C)c(C)c4cc23)cc1 [Scaff10-26] | > 200 | 50 |  |  |  | inhibitory effect on the AKAP-Lbc/DHPH-RhoA interaction ([1]; HTRF): complete loss of the inhibitory effect; solubility [2, 4]: > 150 µM |
| Cc1c(CCC(=O)O)c(=O)oc2cc(OCC(=O)c3ccc(-c4ccccc4)cc3)ccc12 [Scaff10-40] |  |  | 10 | 15 |  | IC50 [1, 9]: 21 ± 3 µM; IC50 [1, 6]: 20.8 ± 2.6 µM |
| COc1ccc(C(=O)COc2ccc3ccc(=O)oc3c2)cc1 [AE167, 7-[2-(4-Methoxyphenyl)-2-oxo-ethoxy]chromen-2-one] |  |  |  | 30 | > 200 |  |
| COc1ccc(-c2coc3c(C)c4oc(=O)c(CCC(=O)O)c(C)c4cc23)cc1 [Scaff10-50] |  |  | > 150 | 70 | 26.8 ± 3.5 |  |
